Like-named read-outs stand apart in the source and are kept apart here.

In data set [1] the target is T1, histamine-3 receptor (Homo sapiens, UniProt Q9Y5N1).
T1 construct: expressed in transfected cells; host or cells: HEK293 and CHO-K1 (membrane specimen)
As to the kind of experiment: Histamine analogue-binding inhibition test ([35S]GTPγS binding in presence of R-methylhistamine, SPA). Format: biochemical. The settings on record: 20 nM R-methylhistamine, 25° C., 3 hours; read-out: IC50 (nM) to specific [35S]GTPγS binding. The source says:
(§1) A cDNA sequence coding for a human histamine-3 receptor [see International Patent Application WO00/39164) was cloned with expression vectors pCR2.1, pEF1x (by Invitrogen) and pCI-neo (by Promega). The resulting expression vector was transfected into host cells, HEK293 and CHO-K1 (American Type Culture Collection), according to a cationic lipid process [see Proceedings of the National Academy of Sciences of the United States of America, Vol., 84, p. 7413 (1987)] to obtain histamine-3 receptor expression cells.
A membrane specimen prepared from the cells having expressed a histamine-3 receptor was incubated in an assay buffer (50 mM Tris buffer, 100 mM NaCl, 5 mM MgCl2, pH 7.4) along with a test compound, 20 nM R-methylhistamine (histamine analogue, by Sigma), 10 μM GDP (guanine-nucleotide diphosphate, by Sigma), […] [^35S] GTPγS (guanine-nucleotide triphosphate analogue, by Amersham) and SPA resin (wheatgerm agglutinin SPA beads, by Amersham) therein on a 96-well optiplate (by Packard) at 25° C. for 3 hours and then centrifuged at 3,000 rpm, and its activity was counted with Topcount (by Packard). The non-specific binding was determined in the presence of 10 μM GTPγS (by Sigma), and the 50% inhibitory concentration (IC50) of the test compound to specific N[^35S] GTPγS binding was calculated [see British Journal of Pharmacology, Vol. 135, p. 383 (2002)].

The nature of data set [2]: Test for internal kinetics. The settings on record: SD male rats, oral or intravenous administration. Format: in vivo, rat. As to the method:
A test compound was orally or intravenously administered to SD male rats (7 to 10 weeks-age, 200 to 400 g) kept away from eating and drinking overnight, and using a heparinization capillary within a predetermined period of time, about 100 μl of the blood was collected from them via their tail vein. The blood was centrifuged (4° C., 6000 rpm, 10 minutes) to collect its plasma. Ethanol (including an internal standard substance) was added to the plasma in an amount of 3 times that of the plasma, and stirred, and left statically at −20° C. for 20 minutes, and then this was centrifuged (4° C., 10,000 rpm, 10 minutes). The supernatant was analyzed through LC/MS/MS, and the plasma concentration of the compound was quantified according to a relative calibration curve method.

Data set [3] can be described thus: Brain/cerebrospinal fluid migration test. Format: in vivo, rat. The settings on record: SD male rats, 2 hours after oral administration (10 mg/kg); for concentration at 2 h: rat. The source says: A test compound was orally or intravenously administered to SD male rats (7 to 10 weeks-age, 200 to 400 g), and while anesthetized with ether for a predetermined period of time, the whole blood was collected from the abdominal aorta of the rats, using a heparin-processed syringe. Next, the brain skin was cut opened and a 30 G needle for dental use was pierced between the cervical vertebrae and inserted into the subarachnoid cavity. Through the tube connected with the dental 30 G needle, from 50 to 100 μl of the cerebrospinal fluid was collected into a 1-ml syringe, and then the brain was taken out. The blood sample was centrifuged (4° C., 6000 rpm, 10 minutes), and the resulting plasma was stirred with ethanol (including an internal standard substance) added thereto in an amount of 3 times the plasma. 2 ml of water was added to the brain sample and homogenized, and a part of the resulting mixture was stirred with ethanol (including an internal standard substance) added thereto in an amount of 3 times the mixture. These samples were kept at −20° C. for 20 minutes, and then centrifuged (4° C., 12,000 g, 10 minutes), and the resulting supernatant was analyzed through LC/MS/MS. According to a relative calibration curve method, the concentration of the test compound in the plasma, the brain and the cerebrospinal fluid was quantified.

Data set [4] addresses T1, histamine-3 receptor. In words: Histamine analogue-binding inhibition test ([3H]N-α-methylhistamine binding to membrane specimen). Conditions: membrane of histamine-3 receptor expressing cells, 25° C., 2 hours; read-out: 50% inhibitory concentration (IC50) to specific N-α-methylhistamine binding.
From the text: as §1
A membrane specimen prepared from the cells having expressed a histamine-3 receptor was incubated in an assay buffer (50 mM Tris buffer, pH 7.4) along with a test compound and 20,000 cpm of [^3H]-α-methylhistamine (by NEN) therein at 25° C. for 2 hours, and then filtered through a glass filter GF/C. This was washed with 50 mM Tris buffer (ph 7.4), and the radioactivity on the glass filter was measured. The non-specific binding was determined in the presence of 10 μM thioperamide (by SIGAM), and the 50% inhibitory concentration (IC50) of the test compound to specific N-α-methylhistamine binding was calculated [see Molecular Pharmacology, Vol. 55, p. 1101 (1999)].

T1 sequence (Q9Y5N1 whole entry): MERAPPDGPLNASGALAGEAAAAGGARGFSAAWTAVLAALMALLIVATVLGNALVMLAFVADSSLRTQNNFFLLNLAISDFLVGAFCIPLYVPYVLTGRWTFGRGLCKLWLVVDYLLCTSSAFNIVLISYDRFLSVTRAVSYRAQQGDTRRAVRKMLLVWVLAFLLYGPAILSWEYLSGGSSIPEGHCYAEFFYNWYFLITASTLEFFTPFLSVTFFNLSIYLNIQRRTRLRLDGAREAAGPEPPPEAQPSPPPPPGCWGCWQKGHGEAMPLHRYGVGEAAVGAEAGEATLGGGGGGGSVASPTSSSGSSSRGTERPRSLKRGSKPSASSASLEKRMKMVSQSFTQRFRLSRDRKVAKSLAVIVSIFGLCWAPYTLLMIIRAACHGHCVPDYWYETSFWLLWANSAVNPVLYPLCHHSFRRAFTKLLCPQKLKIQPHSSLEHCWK

As for `O=C(c1ccc(-c2cnc(OC3CCN(C4CCCC4)CC3)nc2)cc1)N1CCCC1` [Example 11, 2-(1-cyclopentylpiperidin-4-yloxy)-5-{4-(pyrrolidin-1-ylcarbonyl)phenyl}pyrimidine], at histamine-3 receptor [1], the IC50 came out at 1.2 nM.
Same read-out and setting: with `FC(F)(F)c1ccc(-c2cnc(OC3CCN(C4CCCC4)CC3)nc2)cc1` [Example 23, 2-(1-cyclopentylpiperidin-4-yloxy)-5-(4-trifluoromethylphenyl)pyrimidine] the figure was 1.4 nM; with `c1cn2cnnc2cc1-c1cnc(OC2CCN(C3CCCC3)CC2)nc1` [Example 60, 2-(1-cyclopentylpiperidin-4-yloxy)-5-(1,2,4-triazolo[4,3,a]pyridin-7-yl)pyrimidine], 1.2 nM.
As to `CS(=O)(=O)c1ccc(-c2cnc(OC3CCN(C4CCCC4)CC3)nc2)cc1` [Example 37, 2-(1-cyclopentylpiperidin-4-yloxy)-5-{4-(methylsulfonyl)phenyl}pyrimidine], the IC50 on histamine-3 receptor [1] was 1.3 nM.
Same read-out and setting: the value for `CC(C)N1CCC(Oc2ccc(-c3ccc(=O)n(C)c3)cn2)CC1` [Example 68, 2-(1-isopropylpiperidin-4-yloxy)-5-{1-methyl-1H-pyridin-2-on-5-yl}pyridine] was 1.4 nM.
Still for that read-out and setting: the value for `Cn1cc(-c2ccc(OC3CCN(C4CCC4)CC3)nc2)ccc1=O` [Example 65, 2-(1-cyclobutylpiperidin-4-yloxy)-5-{1-methyl-1H-pyridin-2-on-5-yl}pyridine] was 0.45 nM.
`N#Cc1ccc(-c2cnc(OC3CCN(C4CCCC4)CC3)nc2)cc1` [Example 1, 2-(1-cyclopentylpiperidin-4-yloxy)-5-(4-cyanophenyl)pyrimidine]: the IC50 on histamine-3 receptor [1] was determined as 1.9 nM; on histamine-3 receptor [4], 15 nM. In data set [2], the “half-value period in blood” value came to 5.3 h. Moreover, in data set [2] (rat, plasma), the bioavailability (commonly dose-corrected exposure relative to a reference, in per cent) was found to be 53%. The compound further returned a brain concentration in data set [3] of 6.18 nmol/g. Also, the concentration at 2 h in data set [3] (cerebrospinal fluid, read-out: cerebrospinal fluid concentration) is 128 nM; in data set [3] (plasma, read-out: plasma concentration), 540 nM.

These data come from patent US8044070B2, “Heteroaryloxy nitrogenous saturated heterocyclic derivative” (MSD K.K., priority 2003, dated 2011).
